Results as given in the NIST ThermoML archive (doi:10.1016/j.fluid.2017.12.001).
± gives the expanded uncertainty stated by the source.

Assay: xn = mol fraction of the nth substance listed
Conditions: 100.9 kPa, Liquid; for speed of sound: Single path-length method; for mass density: Vibrating tube method; for viscosity: Concentric cylinders viscometry

CCCC(=O)[O-].CC[NH2+]CC [diethylammonium butanoate] + O
speed of sound (308.15 K, x1 = 0.2067): 1659.9 ± 0.41 m/s | speed of sound (308.15 K, x1 = 0.3096): 1581.6 ± 0.49 m/s | speed of sound (308.15 K, x1 = 0.4951): 1494 ± 0.63 m/s | speed of sound (308.15 K, x1 = 0.6812): 1435.5 ± 0.75 m/s | speed of sound (308.15 K, x1 = 0.7974): 1424.2 ± 0.84 m/s | speed of sound (308.15 K, x1 = 0.974): 1382.6 ± 0.98 m/s | mass density (308.15 K, x1 = 0.0123): 996.9 ± 0.4 kg/m3 | mass density (308.15 K, x1 = 0.0453): 1000.03 ± 0.4 kg/m3 | mass density (308.15 K, x1 = 0.1005): 994.12 ± 0.4 kg/m3 | mass density (308.15 K, x1 = 0.1439): 981.01 ± 0.41 kg/m3 | mass density (308.15 K, x1 = 0.2067): 973.03 ± 0.41 kg/m3 | mass density (308.15 K, x1 = 0.3096): 957.65 ± 0.42 kg/m3 | mass density (308.15 K, x1 = 0.4951): 938.09 ± 0.47 kg/m3 | mass density (308.15 K, x1 = 0.6812): 927.6 ± 0.55 kg/m3 | mass density (308.15 K, x1 = 0.7974): 912 ± 0.61 kg/m3 | mass density (308.15 K, x1 = 0.974): 907.1 ± 0.75 kg/m3 | viscosity (310.65 K, x1 = 0.0122): 1.06 ± 0.02 mPa·s | viscosity (310.65 K, x1 = 0.0451): 2.43 ± 0.02 mPa·s | viscosity (310.65 K, x1 = 0.0999): 5.73 ± 0.03 mPa·s | viscosity (310.65 K, x1 = 0.143): 8.92 ± 0.04 mPa·s | viscosity (310.65 K, x1 = 0.2051): 14.41 ± 0.07 mPa·s | viscosity (310.65 K, x1 = 0.3064): 24.13 ± 0.12 mPa·s | viscosity (310.65 K, x1 = 0.4879): 34.17 ± 0.22 mPa·s | viscosity (310.65 K, x1 = 0.6684): 35.33 ± 0.27 mPa·s | viscosity (310.65 K, x1 = 0.974): 30.78 ± 0.32 mPa·s | viscosity (313.15 K, x1 = 0.0122): 1.01 ± 0.02 mPa·s | viscosity (313.15 K, x1 = 0.0451): 2.26 ± 0.02 mPa·s | viscosity (313.15 K, x1 = 0.0999): 5.25 ± 0.03 mPa·s | viscosity (313.15 K, x1 = 0.143): 8.13 ± 0.04 mPa·s | viscosity (313.15 K, x1 = 0.2051): 13.03 ± 0.06 mPa·s | viscosity (313.15 K, x1 = 0.3064): 21.59 ± 0.11 mPa·s | viscosity (313.15 K, x1 = 0.4879): 30.39 ± 0.19 mPa·s | viscosity (313.15 K, x1 = 0.6684): 31.48 ± 0.24 mPa·s | viscosity (313.15 K, x1 = 0.974): 27.55 ± 0.28 mPa·s | speed of sound (313.15 K, x1 = 0.0123): 1615.3 ± 0.22 m/s | speed of sound (313.15 K, x1 = 0.0453): 1743.8 ± 0.25 m/s | speed of sound (313.15 K, x1 = 0.1005): 1736.7 ± 0.29 m/s | speed of sound (313.15 K, x1 = 0.1439): 1702.2 ± 0.35 m/s | speed of sound (313.15 K, x1 = 0.2067): 1644.3 ± 0.41 m/s | speed of sound (313.15 K, x1 = 0.3096): 1565.2 ± 0.49 m/s | speed of sound (313.15 K, x1 = 0.4951): 1478.3 ± 0.63 m/s | speed of sound (313.15 K, x1 = 0.6812): 1418.8 ± 0.75 m/s | speed of sound (313.15 K, x1 = 0.7974): 1408.5 ± 0.84 m/s | speed of sound (313.15 K, x1 = 0.974): 1365.2 ± 0.98 m/s | mass density (313.15 K, x1 = 0.0123): 995 ± 0.4 kg/m3 | mass density (313.15 K, x1 = 0.0453): 997.13 ± 0.4 kg/m3 | mass density (313.15 K, x1 = 0.1005): 991.05 ± 0.4 kg/m3 | mass density (313.15 K, x1 = 0.1439): 977.64 ± 0.41 kg/m3 | mass density (313.15 K, x1 = 0.2067): 969.96 ± 0.41 kg/m3 | mass density (313.15 K, x1 = 0.3096): 954.6 ± 0.43 kg/m3 | mass density (313.15 K, x1 = 0.4951): 934.18 ± 0.47 kg/m3 | mass density (313.15 K, x1 = 0.6812): 925.21 ± 0.55 kg/m3 | mass density (313.15 K, x1 = 0.7974): 908.2 ± 0.61 kg/m3 | mass density (313.15 K, x1 = 0.974): 903.2 ± 0.75 kg/m3 | viscosity (315.65 K, x1 = 0.0122): 0.96 ± 0.02 mPa·s | viscosity (315.65 K, x1 = 0.0451): 2.1 ± 0.02 mPa·s | viscosity (315.65 K, x1 = 0.0999): 4.82 ± 0.03 mPa·s | viscosity (315.65 K, x1 = 0.143): 7.42 ± 0.04 mPa·s | viscosity (315.65 K, x1 = 0.2051): 11.82 ± 0.06 mPa·s | viscosity (315.65 K, x1 = 0.3064): 19.39 ± 0.1 mPa·s | viscosity (315.65 K, x1 = 0.4879): 27.14 ± 0.17 mPa·s | viscosity (315.65 K, x1 = 0.6684): 28.13 ± 0.22 mPa·s | viscosity (315.65 K, x1 = 0.974): 24.73 ± 0.26 mPa·s | viscosity (318.15 K, x1 = 0.0122): 0.92 ± 0.02 mPa·s | viscosity (318.15 K, x1 = 0.0451): 1.96 ± 0.02 mPa·s | viscosity (318.15 K, x1 = 0.0999): 4.45 ± 0.03 mPa·s | viscosity (318.15 K, x1 = 0.143): 6.82 ± 0.04 mPa·s | viscosity (318.15 K, x1 = 0.2051): 10.76 ± 0.05 mPa·s | viscosity (318.15 K, x1 = 0.3064): 17.45 ± 0.09 mPa·s | viscosity (318.15 K, x1 = 0.4879): 24.28 ± 0.15 mPa·s | viscosity (318.15 K, x1 = 0.6684): 25.23 ± 0.2 mPa·s | viscosity (318.15 K, x1 = 0.974): 22.26 ± 0.23 mPa·s | speed of sound (318.15 K, x1 = 0.0123): 1617.5 ± 0.22 m/s | speed of sound (318.15 K, x1 = 0.0453): 1734.2 ± 0.25 m/s | speed of sound (318.15 K, x1 = 0.1005): 1722.8 ± 0.29 m/s | speed of sound (318.15 K, x1 = 0.1439): 1687.3 ± 0.35 m/s | speed of sound (318.15 K, x1 = 0.2067): 1628.7 ± 0.41 m/s | speed of sound (318.15 K, x1 = 0.3096): 1548.6 ± 0.49 m/s | speed of sound (318.15 K, x1 = 0.4951): 1462.4 ± 0.63 m/s | speed of sound (318.15 K, x1 = 0.6812): 1401.9 ± 0.75 m/s | speed of sound (318.15 K, x1 = 0.7974): 1393.8 ± 0.84 m/s | speed of sound (318.15 K, x1 = 0.974): 1348.2 ± 0.98 m/s | mass density (318.15 K, x1 = 0.0123): 992.7 ± 0.4 kg/m3 | mass density (318.15 K, x1 = 0.0453): 994.15 ± 0.4 kg/m3 | mass density (318.15 K, x1 = 0.1005): 987.76 ± 0.4 kg/m3 | mass density (318.15 K, x1 = 0.1439): 974.31 ± 0.41 kg/m3 | mass density (318.15 K, x1 = 0.2067): 967.21 ± 0.41 kg/m3 | mass density (318.15 K, x1 = 0.3096): 952.7 ± 0.43 kg/m3 | mass density (318.15 K, x1 = 0.4951): 930.28 ± 0.47 kg/m3 | mass density (318.15 K, x1 = 0.6812): 922.19 ± 0.55 kg/m3 | mass density (318.15 K, x1 = 0.7974): 904.3 ± 0.61 kg/m3 | mass density (318.15 K, x1 = 0.974): 899.2 ± 0.75 kg/m3 | viscosity (320.65 K, x1 = 0.0122): 0.87 ± 0.02 mPa·s | viscosity (320.65 K, x1 = 0.0451): 1.84 ± 0.02 mPa·s | viscosity (320.65 K, x1 = 0.0999): 4.11 ± 0.03 mPa·s | viscosity (320.65 K, x1 = 0.143): 6.24 ± 0.03 mPa·s | viscosity (320.65 K, x1 = 0.2051): 9.82 ± 0.05 mPa·s | viscosity (320.65 K, x1 = 0.3064): 15.77 ± 0.08 mPa·s | viscosity (320.65 K, x1 = 0.4879): 21.77 ± 0.14 mPa·s | viscosity (320.65 K, x1 = 0.6684): 22.68 ± 0.18 mPa·s | viscosity (320.65 K, x1 = 0.974): 20.08 ± 0.21 mPa·s
